Tests used:
C. albicans (SC5314) = experiment: Infection of TR146-Nluc epithelial cells with C. albicans in the presence of antifungals; damage read out by Nluc and LDH in supernatant; assay type: cell-based; conditions: sub-MIC levels, supernatant 24 hours after infection; for protection of TR146-Nluc from C. albicans-induced cell damage, LDH assay: LDH readout, protective effect not reliably detected (FIG. 3D); for protection of TR146-Nluc from C. albicans-induced cell damage, Nluc assay: Nluc readout (FIG. 3D)
Method: (§1) In order to measure damage from cells seeded in 96-well plates, plates were centrifuged at 250×g for 10 minutes. Where indicated, 100 μl of supernatant was collected and stored at −20° C. for assaying on another day in the same week. For the luciferase assays, 5 μl supernatant was diluted with 95 μl PBS in white flat-opaque-bottomed 96-well plates (ThermoFisher). Then, 100 μl of 10 μM coelenterazine (in PBS) was added and luciferase activity measured immediately using a Tecan infinite M200 luminescence reader, with integration time of 100 ms and OD2 compensation. The OD2 neutral density filter attenuates high level light by a factor of 100.
The LDH cytotoxicity assay was performed according to instructions in the Roche Cytotoxicity Detection Kit with minor modifications. Briefly, 10 μl supernatant was diluted with 90 μl PBS in transparent-flat-bottomed 96-well plates, 100 μl of kit reagent mixture was added to each well, the plates were incubated in the dark for 15-20 minutes at room temperatures, and absorbance was measured with a Tecan absorbance reader at 492 nm (reference at 600 nm).
Infection of epithelial cells with Candida spp. strains Overnight cultures of Candida spp. strains in YPD, 1% peptone were diluted, washed in PBS, and counted using Neubauer counting chambers. The medium of confluent epithelial cells was replaced with a suspension of […] Candida spp. (MOI 1) in the appropriate cell culture medium (without FBS). The cells were incubated at 37° C. and 5% CO2 for 24 hours.
Stock solutions of the antifungal drugs, fluconazole (10 mg/ml) and voriconazole (10 mg/ml) were prepared in DMSO and stored at −20° C. A two-fold dilution series was prepared in DMEM/F12 cell culture medium for fluconazole (8-0.25 μg/ml) and voriconazole ([…]). Diluted drugs were transferred to TR146-Nluc cells seeded 48 hours prior, and infected with C. albicans (SC5314), as described above. Supernatant was collected 24 hours after infection to measure damage by LDH and Nluc.

Nluc = target: T1, Nluc (Oplophorus gracilirostris, UniProt Q9GV45, A31E/A60N/A81I/F95D/I117V/K70R/L54V/L99Q/M102K/N193R/P142E/Q151K/Q38R/Q45L/V71I/Y165I); experiment: Effect of pyruvate on Nluc enzyme activity in TR146-Nluc cell lysate; assay type: biochemical; conditions: 16-0.5 mM dilution series (FIG. 4C)
T1 construct: expressed in transfected cells; host or cells: TR146 human oral epithelial cells, lentivirally transduced with pSEW-NanoLuc-IRES-PuroR (Nluc gene amplified from Addgene plasmid #67178), lysed in 1% Triton X-100 in PBS
T1 sequence (Q9GV45 other isoform, or with tags, fused parts or gaps with the stated changes): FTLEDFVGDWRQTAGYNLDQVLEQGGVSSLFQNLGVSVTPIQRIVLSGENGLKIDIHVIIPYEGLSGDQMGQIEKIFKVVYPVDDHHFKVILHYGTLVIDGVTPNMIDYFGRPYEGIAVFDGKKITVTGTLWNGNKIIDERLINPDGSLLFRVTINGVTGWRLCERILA
Method: as §1
TR14-Nluc cells were detached with Accutase and resuspended in 5 ml PBS. Cells were counted and ≈1×10^4 cells/ml were resuspended in lysing buffer (1% Triton X-100 in PBS, pH 7.4).
To examine the effects of pyruvate on activity of LDH, a 2-fold dilution series for sodium pyruvate and lactate (16-0.5 mM) was prepared in lysis buffer, the lysate was incubated for 10 min at 37° C. and centrifuged at 10,000×g. The supernatant was collected to test LDH and luciferase enzyme activity.

Row | SMILES | protection of TR146-Nluc from C. albicans-induced cell damage, LDH assay (C. albicans (SC5314)) | protection of TR146-Nluc from C. albicans-induced cell damage, Nluc assay (C. albicans (SC5314)) | effect on Nluc enzyme activity (Nluc)
1 | OC(Cn1cncn1)(Cn1cncn1)c1ccc(F)cc1F [fluconazole] | not with LDH | protective effect | –
2 | C[C@@H](c1ncncc1F)[C@](O)(Cn1cncn1)c1ccc(F)cc1F [voriconazole] | not with LDH | protective effect | –
3 | CC(=O)C(=O)[O-].[Na+] [pyruvate, sodium pyruvate] | – | – | no discernible effect
